This assay has as its target T1, human TRPM8 (Homo sapiens, UniProt Q7Z2W7).
T1 construct: expressed in transfected cells
Briefly: Automated patch clamp (IonFlux 16) of menthol-evoked TRPM8 currents in HEK293 cells stably expressing human TRPM8. Format: cell-based. Here is the method: HEK293 cells, stably expressing human TRPM8 (GenBank number NM_024080), were cultured in T75 tissue culture flasks using Dulbecco’s modified Eagle medium (Euroclone, Pero, Italy), supplemented with 10% FBS (Euroclone, Pero, Italy) plus Geneticin (Sigma-Aldrich, St. Louis, MI, USA) 800 μg/mL at 37° C, in a humidified 5% CO2 atmosphere. The cells were maintained until they reached 70~80% confluency. Prior to use, the cells were washed twice with Ca^2+ and Mg^2+ free PBS (Euroclone, Pero, Italy), subsequently detached using Accutase (Euroclone, Pero, Italy), and kept in suspension using CHO-SFM-II medium (Gibco, by Thermo Fisher Scientific, Carlsbad, CA, USA). The cells were then resuspended in the external solution after a centrifugation at 1000 rpm for 2 min. Single-cells suspension, with a final concentration of 3–5 million cells/mL, was required for the automated patch clamp electrophysiology procedure.
We performed automated patch clamp recordings by using the IonFlux 16 system (Fluxion Biosciences, Alameda, CA, USA). The procedure includes four automated phases—prime, trap, break, and data acquisition—in the whole-cells voltage clamp. The cells were voltage clamped at a holding potential of −60 mV, stepped to −100 mV, ramped to +100 mV in 200 ms, and finally stepped back to −60 mV. Voltage command was executed every 5 s, and currents were recorded with a sampling rate of 5 kHz. […] The interval range between each application was 90 s, and intervals included washing cells with an external solution-containing vehicle. However, the duration of each application was adjusted based on each drug’s lipophilicity and kinetic of inhibition. For leakage subtraction, leakage was measured by applying a short 20 mV pulse (typically from −80 mV to −100 mV) at the beginning of each sweep to measure the current difference. By assuming linear leakage and subtracting proportional currents from each of the different voltage command segments, the software performs automatic leakage subtraction. […] The extracellular solution contained 140 mM NaCl, 4 mM KCl, 1 mM MgCl2, 10 mM glucose, and 10 mM HEPES, pH 7.4 with NaOH and 310 mOsm. We removed Ca^2+ from the external solution to avoid the Ca^2+-dependent desensitization of TRPM8. The intracellular solution contained the following (mM): 60 CsCl, 70 CsF, 5 Na2ATP, 10 HEPES, and 10 EGTA, pH 7.2 with CSOH and 295 mOsm. All recordings were performed at a temperature of 20 ± 1 °C.
All compounds were obtained from Sigma-Aldrich. Stock solutions were prepared in 50 mM of dimethyl sulfoxide (DMSO) and stored at −20° C.
The analysis of the data was carried out using the ‘data analyzer software’ (Data Analyzer v. 5.0 (beta), Fluxion Biosciences, Alameda, CA, USA), Microsoft Excel 365, and the Prism 9.0 software (GraphPad Software Inc., San Diego, CA, USA). The average current density of the last three recordings at +80 mV in each application period was used as the current amplitude.
IC50 and EC50 were calculated by fitting the four-parameter Hill equation using GraphPad Prism.
Four-parameter Hill equation: f(x)=Imin+(Imax−Imin/1+(C50/x)^h)
Data are expressed as the mean ± standard deviation (SD).
On the technique in general: Patch clamp records ionic current or voltage across a cell membrane.

[1] abbreviates: HEK293; read-out: Average Percentage Inhibition at 10 µM.
Where [2] appears, read: at concentrations higher than IC50, prolonged washing, data not shown.
Where [3] appears, read: read-out: IC50, inhibition of menthol-induced TRPM8 current.
Setting [4] is: at concentrations higher than 50 µM.

Where two headings read alike, the source gives them in different places.

T1 sequence (Q7Z2W7 whole entry): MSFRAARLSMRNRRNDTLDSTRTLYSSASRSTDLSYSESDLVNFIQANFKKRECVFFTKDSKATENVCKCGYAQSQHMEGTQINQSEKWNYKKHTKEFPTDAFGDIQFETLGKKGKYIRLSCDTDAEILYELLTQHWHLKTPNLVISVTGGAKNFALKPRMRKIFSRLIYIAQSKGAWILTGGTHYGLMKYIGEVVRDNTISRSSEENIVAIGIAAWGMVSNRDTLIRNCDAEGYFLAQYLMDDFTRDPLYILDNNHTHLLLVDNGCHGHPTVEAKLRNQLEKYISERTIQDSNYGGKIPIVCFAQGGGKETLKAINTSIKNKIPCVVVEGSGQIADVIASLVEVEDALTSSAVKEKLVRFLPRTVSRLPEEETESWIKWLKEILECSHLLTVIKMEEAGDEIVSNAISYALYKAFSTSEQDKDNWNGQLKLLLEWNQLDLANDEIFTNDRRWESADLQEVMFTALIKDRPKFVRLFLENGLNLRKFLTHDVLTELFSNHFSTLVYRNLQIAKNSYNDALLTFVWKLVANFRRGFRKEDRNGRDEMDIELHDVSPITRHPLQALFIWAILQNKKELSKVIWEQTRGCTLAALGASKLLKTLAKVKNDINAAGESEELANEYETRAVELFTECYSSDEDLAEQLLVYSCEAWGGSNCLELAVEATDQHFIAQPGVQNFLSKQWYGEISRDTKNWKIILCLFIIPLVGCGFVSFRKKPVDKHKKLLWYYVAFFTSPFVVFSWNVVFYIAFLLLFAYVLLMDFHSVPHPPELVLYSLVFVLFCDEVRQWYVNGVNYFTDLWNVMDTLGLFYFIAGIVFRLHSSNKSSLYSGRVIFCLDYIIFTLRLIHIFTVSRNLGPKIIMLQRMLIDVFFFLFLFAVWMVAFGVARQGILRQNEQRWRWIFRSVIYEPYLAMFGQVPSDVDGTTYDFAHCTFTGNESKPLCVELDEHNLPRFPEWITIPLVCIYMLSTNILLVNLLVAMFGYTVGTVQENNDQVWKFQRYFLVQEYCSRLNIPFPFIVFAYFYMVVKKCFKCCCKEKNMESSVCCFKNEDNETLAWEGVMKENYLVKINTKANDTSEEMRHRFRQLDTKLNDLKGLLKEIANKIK

For the compound `Cc1cccc(COc2ccccc2C(=O)N(CCCN)Cc2cccs2)c1.Cl` [AMTB, N-(3-Aminopropyl)-2-[(3-methylphenyl)methoxy]-N-(2-thienylmethyl)benzamide hydrochloride], for the setting “1 µM AMTB”, the “Block of menthol-activated currents” value is “fully blocked”.

Usually inhibition stands for the percentage by which the read-out fell short of the control. Consider `CCCC(=O)Nc1ccc(OCC(O)CNC(C)C)c(C(C)=O)c1` (stereo not drawn) [Acebutolol, acebutolol], for which, under setting [1], the inhibition at 10 µM was found to be 0%.

In the case of `CC(C)NCC(O)COc1ccc(CC(N)=O)cc1` (stereo not drawn) [Atenolol, atenolol], the inhibition at 10 µM under setting [1] is 0%.

On to `NC(=O)N1c2ccccc2C=Cc2ccccc21` [Carbamazepine, carbamazepine], for which, under setting [1], the inhibition at 10 µM worked out at 0%.

The IC50 is the concentration needed to halve the response being measured. Regarding `COc1ccccc1OCCNCC(O)COc1cccc2[nH]c3ccccc3c12` (stereo not drawn) [Carvedilol, carvedilol], the inhibition at 10 µM under setting [1] worked out at 57%. Also, under setting [2], the “Reversibility of the inhibiting effect on washing” value is given as “irreversible inhibiting effect”. Besides, under setting [3], the IC50 worked out at 9.1 ± 0.6 µM. In addition, the “Blocking effect on TRPM8 menthol-evoked currents” value (“Blocking effect” for short) (β-blocker screen) is “showed a blocking effect”.

On to `O=C(NCC1CCCCN1)c1cc(OCC(F)(F)F)ccc1OCC(F)(F)F` (stereo not drawn) [Flecainide, flecainide], for which, under setting [1], the inhibition at 10 µM stood at 0%. For the same compound, the “Block of outward TRPM8 currents induced by menthol” value (from here on “Block … by menthol”) under setting [4] is reported as “partial block”.

For the compound `NCC1(CC(=O)O)CCCCC1` [Gabapentin, gabapentin], the inhibition at 10 µM (HEK293, read-out: Average Percentage Inhibition at 10 µM) is 0%.

Turning to `Nc1nnc(-c2cccc(Cl)c2Cl)c(N)n1` [Lamotrigine, lamotrigine], the inhibition at 10 µM under setting [1] was determined as 0%.

Turning to `COCCc1ccc(OCC(O)CNC(C)C)cc1` (stereo not drawn) [Metoprolol, metoprolol], under setting [1], the inhibition at 10 µM came out at 0%.

As to `Cc1cccc(C)c1OCC(C)N` (stereo not drawn) [Mexiletine, mexiletine], under setting [1], the inhibition at 10 µM worked out at 0%.

As for `CC(C)(C)NCC(O)COc1cccc2c1CC(O)C(O)C2` (stereo not drawn) [Nadolol, nadolol], the inhibition at 10 µM under setting [1] was determined as 0%.

For the compound `OC(CNCC(O)C1CCc2cc(F)ccc2O1)C1CCc2cc(F)ccc2O1` (stereo not drawn) [Nebivolol, nebivolol], the inhibition at 10 µM under setting [1] turned out to be 100%. The “Reversibility of the inhibiting effect on washing” value under setting [2] is given as “irreversible inhibiting effect”. In addition, the “Inhibitory effect of nebivolol compared with carvedilol” value (electrophysiological data) is listed as “ten times stronger”. Moreover, under setting [3], the IC50 was 0.97 ± 0.15 µM. The “Blocking effect” value (β-blocker screen) is on record as “showed a blocking effect”.

As to `NC(=O)N1c2ccccc2CC(=O)c2ccccc21` [Oxcarbazepine, oxcarbazepine], the inhibition at 10 µM under setting [1] stood at 0%.

Consider `O=C1NC(=O)C(c2ccccc2)(c2ccccc2)N1` [Phenytoin, phenytoin], for which the inhibition at 10 µM under setting [1] was 0%. In addition, the “Block … by menthol” value under setting [4] is “partial block”.

Consider `CCCNCC(O)COc1ccccc1C(=O)CCc1ccccc1` (stereo not drawn) [Propafenone, propafenone], for which, under setting [1], the inhibition at 10 µM was determined as 26%. Besides, the “Block … by menthol” value (below 50 µM) was “significant blocking capacity”. Further, the IC50 under setting [3] stood at 16.8 ± 5 µM.

In the case of `CC(C)NCC(O)COc1cccc2ccccc12` (stereo not drawn) [Propranolol, propranolol], the inhibition at 10 µM under setting [1] was found to be 12%. Besides, the IC50 under setting [3] came out at 45 ± 7 µM. Further, the “Blocking effect” value (β-blocker screen) was “showed a blocking effect”.

For `COc1ccccc1OCC(O)CN1CCN(CC(=O)Nc2c(C)cccc2C)CC1` (stereo not drawn) [Ranolazine, ranolazine], the inhibition at 10 µM under setting [1] was 0%.

`Nc1nc2ccc(OC(F)(F)F)cc2s1` [Riluzole, riluzole]: under setting [1], the inhibition at 10 µM came out at 0%.

For the compound `NC(=O)c1cn(Cc2c(F)cccc2F)nn1` [Rufinamide, rufinamide], the inhibition at 10 µM under setting [1] was found to be 0%.

With `CCCCNc1ccc(C(=O)OCCN(C)C)cc1` [Tetracaine, tetracaine], the inhibition at 10 µM under setting [1] worked out at 0%.

Values taken from paper PMC9609861, “Nebivolol as a Potent TRPM8 Channel Blocker: A Drug-Screening Approach through Automated Patch Clamping and Ligand-Based Virtual Screening” (Membranes, 2022).
